# Source: PMC12333015, “Profiling the Impact of mGlu7/Elfn1 Protein Interactions on the Pharmacology of mGlu7 Allosteric Modulators” (ACS Chemical Neuroscience, 2025)
# Target: T1, mGlu7/Elfn1 (Rattus norvegicus, UniProt P35400)
# T1 construct: expressed in transfected cells; host or cells: HEK293A mGlu7/GIRK cells cocultured with HEK293A polyclonal cells stably expressing Elfn1-Myc (pcDNA3)
# Assay: Thallium flux assay, mGlu7/GIRK HEK293 cells cocultured with Elfn1-expressing cells
# Type: cell-based, mouse Elfn1
# Conditions: for EC50: L-AP4 pEC50 ± SEM, Elfn1, DMSO vehicle
# From the text: We began our evaluation of mGlu7 ligands in the presence and absence of Elfn1 by using a coculture system as previously described , with several modifications (Figure ). Cells expressing rat mGlu7 and coexpressing G protein inwardly rectifying potassium (GIRK) channels 1 and 2 were cocultured with cells expressing either an empty pcDNA3 vector control or a plasmid containing Elfn1 in the pcDNA3 backbone. We then evaluated the activity of the orthosteric agonist L-AP4 and measured effects on maximal response and pEC50. All responses were normalized to the maximal effect of L-AP4 in the presence of the pcDNA3 control plasmid.
# 2 Assay design and workflow. (Left panel) Cells expressing rat mGlu7/GIRK (pink) were cocultured with pcDNA3 (blue) or Elfn1 (purple). […] (Right panel) The effect on the concentration–response curve in the presence (purple) or absence (blue) of Elfn1 can be seen by a change in efficacy, potency, and/or basal response.
# HEK293A polyclonal cells stably expressing either Elfn1 or empty vector were passaged in media (Dulbecco’s modified Eagle medium (DMEM), supplemented with 10% fetal bovine serum (FBS), 20 mM N-(2-hydroxyethyl)-piperazine-N′-ethanesulfonic acid (HEPES), 1 mM Na pyruvate, 2 mM Glutamax, 0.1 mM nonessential amino acids, 1× antibiotic/antimycotic) under G418 (700 μg/mL) selection to maintain expression.
# HEK293A cells stably expressing mouse Elfn1 or pcDNA3 were maintained in growth medium containing 90% Dulbecco’s Modified Eagle Media (DMEM), 10% fetal bovine serum (FBS), 100 units/mL penicillin/streptomycin, 20 mM HEPES, 1 mM sodium pyruvate, 2 mM L-glutamine, 1× nonessential amino acids, and 700 μg/mL G418 sulfate. HEK mGlu7/GIRK cells were maintained in a growth medium with 90% DMEM/F12, 10% dialyzed FBS, 100 units/mL penicillin/streptomycin, 20 mM HEPES, 1 mM sodium pyruvate, 2 mM L-glutamine, 1× nonessential amino acids, 700 μg/mL G418 sulfate, and 600 ng/mL puromycin. All cell culture reagents were purchased from Invitrogen (Carlsbad, CA).
# Thallium flux assays were performed as previously described. A mixture of HEK293A mGlu7/GIRK cells and pcDNA3 or Elfn1-expressing HEK293A cells (5000/15,000 cells/20 μL/well for agonist and PAM experiments; 7500/15,000 cells/20 μL/well for NAM experiments) was seeded in 384-well, amine-coated assay plates (Greiner Bio-One, Monroe, NC). Cells were incubated overnight in a humidified 5% CO2 cell culture incubator at 37 °C. […] Following a 1 h incubation at room temperature, the dye loading solution was replaced with 20 μL/well assay buffer and the plates were loaded into a Hamamatsu FDSS 7000 (Bridgewater, NJ). Data were acquired at 1 Hz (excitation 470 ± 20 nm, emission 540 ± 30 nm) for 10 s, followed by the addition of 20 μL/well of 10 μM NAM/PAM/DMSO, followed by an additional 4 min of data collection. […] Thallium flux data were analyzed by first dividing each point in each wave by the first point in that wave and then subtracting the average of the vehicle control response. The slopes of these vehicle control-subtracted waves were calculated over ten data points beginning 2 s after thallium stimulus addition and fit to a three-parameter logistic equation in GraphPad Prism (La Jolla, CA). In most cases, the final data were normalized to the response of the mGlu7/pcDNA3 with vehicle and 5 mM L-AP4 unless otherwise noted. Potency (pEC50) and maximum responses (E max) induced by compounds were determined using a four-parameter logistical equation in Prism.
# T1 sequence (P35400 35-915): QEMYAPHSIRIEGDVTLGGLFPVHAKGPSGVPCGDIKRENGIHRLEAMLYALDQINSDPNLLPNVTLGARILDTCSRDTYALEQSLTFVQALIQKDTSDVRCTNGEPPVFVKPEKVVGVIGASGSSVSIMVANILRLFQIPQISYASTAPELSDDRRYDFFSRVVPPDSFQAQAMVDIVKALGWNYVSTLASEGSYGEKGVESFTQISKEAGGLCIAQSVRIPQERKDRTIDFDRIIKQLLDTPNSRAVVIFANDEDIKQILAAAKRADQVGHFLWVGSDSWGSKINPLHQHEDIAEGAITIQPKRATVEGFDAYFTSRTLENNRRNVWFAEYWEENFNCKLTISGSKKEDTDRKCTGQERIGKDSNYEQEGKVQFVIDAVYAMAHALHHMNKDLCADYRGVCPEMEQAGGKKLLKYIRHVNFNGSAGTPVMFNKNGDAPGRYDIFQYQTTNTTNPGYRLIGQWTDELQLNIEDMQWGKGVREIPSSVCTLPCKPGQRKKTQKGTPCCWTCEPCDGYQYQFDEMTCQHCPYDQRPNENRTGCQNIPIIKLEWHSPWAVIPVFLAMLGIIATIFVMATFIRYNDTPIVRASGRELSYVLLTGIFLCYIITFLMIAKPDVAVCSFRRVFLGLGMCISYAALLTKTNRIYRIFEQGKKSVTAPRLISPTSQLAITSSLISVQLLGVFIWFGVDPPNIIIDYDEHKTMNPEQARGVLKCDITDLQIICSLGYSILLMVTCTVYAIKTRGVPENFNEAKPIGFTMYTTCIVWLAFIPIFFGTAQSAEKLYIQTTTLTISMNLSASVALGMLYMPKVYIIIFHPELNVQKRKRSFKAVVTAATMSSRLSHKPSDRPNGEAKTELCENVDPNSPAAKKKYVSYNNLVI
# T1 sequence (Q8C8T7 26-828 partner): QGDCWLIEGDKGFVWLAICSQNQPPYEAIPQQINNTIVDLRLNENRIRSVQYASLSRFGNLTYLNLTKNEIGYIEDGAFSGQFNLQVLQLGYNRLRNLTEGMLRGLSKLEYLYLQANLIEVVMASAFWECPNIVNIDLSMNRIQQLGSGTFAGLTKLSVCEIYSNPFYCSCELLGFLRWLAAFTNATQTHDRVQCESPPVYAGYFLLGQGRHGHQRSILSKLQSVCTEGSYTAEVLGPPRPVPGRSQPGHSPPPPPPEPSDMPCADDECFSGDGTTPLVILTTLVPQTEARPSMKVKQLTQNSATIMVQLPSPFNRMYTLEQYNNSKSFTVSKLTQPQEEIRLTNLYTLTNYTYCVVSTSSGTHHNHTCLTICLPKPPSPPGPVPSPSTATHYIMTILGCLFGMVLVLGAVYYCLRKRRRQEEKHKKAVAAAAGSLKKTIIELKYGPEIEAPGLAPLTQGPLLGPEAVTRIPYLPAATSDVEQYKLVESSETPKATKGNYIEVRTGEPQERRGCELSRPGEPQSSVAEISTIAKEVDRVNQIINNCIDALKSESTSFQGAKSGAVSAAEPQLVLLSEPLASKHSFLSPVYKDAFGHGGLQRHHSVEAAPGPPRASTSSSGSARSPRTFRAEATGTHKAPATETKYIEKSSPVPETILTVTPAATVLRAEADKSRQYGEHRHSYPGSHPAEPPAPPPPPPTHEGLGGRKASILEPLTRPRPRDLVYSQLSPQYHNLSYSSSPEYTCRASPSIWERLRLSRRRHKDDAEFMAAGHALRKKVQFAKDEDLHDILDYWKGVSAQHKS
compound,measurement,setting,value
"N[C@@H](CCP(=O)(O)O)C(=O)O [L-AP4, L-2-amino-4-phosphonobutyric acid, reference compound]",EC50,agonist alone (DMSO row of Table 2),324 µM
same,EC50,agonist alone (DMSO row of Table S1),200 µM
same,maximal response to L-AP4 with Elfn1 versus pcDNA3,"eight experiments, p < 0.001",significantly reduced
same,pEC50 of L-AP4 with Elfn1 versus pcDNA3,"eight experiments, p < 0.01",significantly reduced
